Laboratory results reported in ChEMBL document CHEMBL1201862, “PubChem BioAssay data set” (2004).
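Compound exposure: 48 hours, 5 concentrations, 96-well plates. GI50 marks 50% less growth.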 Calls of active or inactive are those of the source. Cut-off read from the data, not from the text of the source: active = GI50 up to about 1.1 µM and inactive = higher.

What was measured:
Experiment in all cases: NCI anticancer screen, dose series, 48 h
CAKI-1 = tested on: CAKI-1
RXF 393 = tested on: RXF 393
EKVX = tested on: EKVX
HCC 2998 = tested on: HCC 2998
HT-29 = tested on: HT-29
OVCAR-3 = tested on: OVCAR-3
SF-539 = tested on: SF-539
UACC-62 = tested on: UACC-62
SK-OV-3 = tested on: SK-OV-3
OVCAR-4 = tested on: OVCAR-4
OVCAR-5 = tested on: OVCAR-5
NCI-H23 = tested on: NCI-H23
HOP-92 = tested on: HOP-92
SF-295 = tested on: SF-295
NCI-H226 = tested on: NCI-H226
NCI-H522 = tested on: NCI-H522
HCT-15 = tested on: HCT-15
TK-10 = tested on: TK-10
SW-620 = tested on: SW-620
A549 = tested on: A549

SMILES | GI50 (CAKI-1) | GI50 (RXF 393) | GI50 (EKVX) | GI50 (HCC 2998) | GI50 (HT-29) | GI50 (OVCAR-3) | GI50 (SF-539) | GI50 (UACC-62) | GI50 (SK-OV-3) | GI50 (OVCAR-4) | GI50 (OVCAR-5) | GI50 (NCI-H23) | GI50 (HOP-92) | GI50 (SF-295) | GI50 (NCI-H226) | GI50 (NCI-H522) | GI50 (HCT-15) [µM] | GI50 (TK-10) | GI50 (SW-620) | GI50 (A549)
c1ccc2cc(-c3cc(-c4cc(-c5ccc6ccccc6c5)on4)no3)ccc2c1 | > 100 µM (inactive) | > 100 µM (inactive) | 11.7 µM (inactive) | 99.1 µM (inactive) | > 100 µM (inactive) | > 100 µM (inactive) | > 100 µM (inactive) | > 100 µM (inactive) | > 100 µM (inactive) | > 100 µM (inactive) | > 100 µM (inactive) | > 100 µM (inactive) | > 100 µM (inactive) | > 100 µM (inactive) | > 100 µM (inactive) | > 100 µM (inactive) | > 100 | > 100 µM (inactive) | > 100 µM (inactive) | > 100 µM (inactive)
CCOc1cc2c(cc1O)/C(=N\N)C[C@@H]1[C@@H]2CC[C@]2(C)[C@@H](O)CC[C@@H]12 | 5.43 µM (inactive) | 5.75 µM (inactive) | 8.28 µM (inactive) | 2.07 µM (inactive) | 9.53 µM (inactive) | 2.32 µM (inactive) | 3.13 µM (inactive) | 0.879 µM (active) | 5.18 µM (inactive) | 24.7 µM (inactive) | 36.4 µM (inactive) | 7.01 µM (inactive) | 13.2 µM (inactive) | 0.397 µM (active) | 4.76 µM (inactive) | 2.8 µM (inactive) | 1.31 | 22.2 µM (inactive) | 1.85 µM (inactive) | 8.75 µM (inactive)
Nc1ccc(S(=O)(=O)Nc2nc3ccccc3nc2N2CCCCCC2)cc1 | 26.4 µM (inactive) | 16 µM (inactive) | 40.3 µM (inactive) | 16.6 µM (inactive) | 33.3 µM (inactive) | 18.3 µM (inactive) | 18.5 µM (inactive) | 18.1 µM (inactive) | 33.6 µM (inactive) | 17.1 µM (inactive) | 38.5 µM (inactive) | 9.06 µM (inactive) | 23.4 µM (inactive) | 22.9 µM (inactive) | 34.7 µM (inactive) | 29 µM (inactive) | 23.9 | 31.8 µM (inactive) | 20 µM (inactive) | 27.7 µM (inactive)
CCC/C(=N\NC(=O)c1cc2ccccc2cc1O)C(CC)C(=O)CCC(=O)N(Cc1ccccc1)Cc1ccccc1 (stereo not given) | 46 µM (inactive) | 37 µM (inactive) | 32 µM (inactive) | 67.5 µM (inactive) | 83.2 µM (inactive) | 20.5 µM (inactive) | 48.1 µM (inactive) | 11.2 µM (inactive) | > 100 µM (inactive) | 59 µM (inactive) | 36.2 µM (inactive) | 76.2 µM (inactive) | 33.3 µM (inactive) | 33.9 µM (inactive) | 47.3 µM (inactive) | 39.1 µM (inactive) | 38.4 | > 100 µM (inactive) | 64 µM (inactive) | 63 µM (inactive)
CSC(=S)N/N=C(\C)c1cccc(C)n1 | 1.1 µM (active) | 0.998 µM (active) | 1.16 µM (inactive) | 3.17 µM (inactive) | 0.133 µM (active) | 0.0568 µM (active) | 1.17 µM (inactive) | 0.472 µM (active) | 0.719 µM (active) | 0.497 µM (active) | 5.77 µM (inactive) | 0.975 µM (active) | 1.1 µM (active) | 1.49 µM (inactive) | 0.824 µM (active) | 0.0815 µM (active) | 0.375 | 0.975 µM (active) | 0.208 µM (active) | 0.762 µM (active)
NC(=O)CC(N)C(=O)NC(Cc1ccccc1)C(=O)NC(Cc1ccccc1)NC(=O)C(Cc1c[nH]c2ccccc12)C(=O)O (stereo not given) | > 100 µM (inactive) | > 100 µM (inactive) | > 100 µM (inactive) | > 100 µM (inactive) | > 100 µM (inactive) | > 100 µM (inactive) | > 100 µM (inactive) | > 100 µM (inactive) | > 100 µM (inactive) | > 100 µM (inactive) | > 100 µM (inactive) | > 100 µM (inactive) | > 100 µM (inactive) | > 100 µM (inactive) | > 100 µM (inactive) | > 100 µM (inactive) | > 100 | > 100 µM (inactive) | > 100 µM (inactive) | > 100 µM (inactive)
O=C(N/N=C(\c1nc2ccc(Cl)cc2nc1O)C(O)c1ccccc1Cl)c1ccncc1 (stereo not given) | > 100 µM (inactive) | > 100 µM (inactive) | > 100 µM (inactive) | > 100 µM (inactive) | > 100 µM (inactive) | > 100 µM (inactive) | > 100 µM (inactive) | > 100 µM (inactive) | > 100 µM (inactive) | > 100 µM (inactive) | > 100 µM (inactive) | > 100 µM (inactive) | > 100 µM (inactive) | > 100 µM (inactive) | > 100 µM (inactive) | > 100 µM (inactive) | > 100 | > 100 µM (inactive) | > 100 µM (inactive) | > 100 µM (inactive)
